In patent publication US9265253B2, “Use of macrocyclic picolinamides as fungicides” (DOW AGROSCIENCES LLC, priority 2013, dated 2016) one finds pest or weed control data, which are given here for 23 compounds.

Like-named read-outs stand apart in the source and are kept apart here.

The test system of experiment [1] is Puccinia triticina; Synonym: Puccinia recondite f. Sp. Tritici. Put plainly: Wheat Brown Rust (PUCCRT) disease control. Format: in vivo. To be noted: Puccinia triticina, topical, rate 100 ppm. The procedure: (§1) Technical grades of materials were dissolved in acetone, which were then mixed with nine volumes of water containing 110 ppm Triton X-100. The fungicide solutions were applied onto wheat seedlings using an automated booth sprayer to run-off. All sprayed plants were allowed to air dry prior to further handling. All fungicides were evaluated using the aforementioned method for their activity vs. all target diseases. Wheat leaf blotch and brown rust activity were also evaluated using track spray applications, in which case the fungicides were formulated as EC formulations, containing 0.1% Trycol 5941 in the spray solutions. Wheat plants (variety Yuma) were grown from seed in a greenhouse in 50% mineral soil/50% soil-less Metro mix until the first leaf was fully emerged, with 7-10 seedlings per pot. These plants were inoculated with an aqueous spore suspension of Septoria tritici either prior to or after fungicide treatments. After inoculation the plants were kept in 100% relative humidity (one day in a dark dew chamber followed by two to three days in a lighted dew chamber at 20° C.) to permit spores to germinate and infect the leaf. The plants were then transferred to a greenhouse set at 20° C. for disease to develop. When disease symptoms were fully expressed on the 1st leaves of untreated plants, infection levels were assessed on a scale of 0 to 100 percent disease severity. Percent disease control was calculated using the ratio of disease severity on treated plants relative to untreated plants. Wheat plants (variety Yuma) were grown from seed in a greenhouse in 50% mineral soil/50% soil-less Metro mix until the first leaf was fully emerged, with 7-10 seedlings per pot. These plants were inoculated with an aqueous spore suspension of Puccinia triticina either prior to or after fungicide treatments. After inoculation the plants were kept in a dark dew room at 22° C. with 100% relative humidity overnight to permit spores to germinate and infect the leaf. The plants were then transferred to a greenhouse set at 24° C. for disease to develop. Fungicide formulation, application and disease assessment followed the procedures as described in the Example A.

The subject of experiment [2] is Mycosphaerella graminicola; Anamorph: Septoria tritici. Description: Leaf Blotch of Wheat (SEPTTR) disease control. Format: in vivo. Conditions: Zymoseptoria tritici, rate 100 ppm. The method, then: as §1, with “plants.” for “plants. Wheat plants (variety Yuma) were grown from seed in a greenhouse in 50% mineral soil/50% soil-less Metro mix until the first leaf was fully emerged, with 7-10 seedlings per pot. These plants were inoculated with an aqueous spore suspension of Puccinia triticina either prior to or after fungicide treatments. After inoculation the plants were kept in a dark dew room at 22° C. with 100% relative humidity overnight to permit spores to germinate and infect the leaf. The plants were then transferred to a greenhouse set at 24° C. for disease to develop. Fungicide formulation, application and disease assessment followed the procedures as described in the Example A.”

Setting [3] is: 24 h, 1 Day Protectant, read-out: PUCCRT 1 DP disease control.
The mark [4] stands for this setting: 72 h, 3 Day Curative, read-out: PUCCRT 3 DC disease control.
The mark [5] stands for this setting: 24 h, 1 Day Protectant, read-out: SEPTTR 1 DP disease control.
The mark [6] stands for this setting: 72 h, 3 Day Curative, read-out: SEPTTR 3 DC disease control.

Turning to `COc1ccnc(C(=O)N[C@H]2CCC[C@H](Cc3ccccc3)[C@@H](OCC3CC3)[C@H](C)OC2=O)c1O` [Compound F19], the pest or weed control at 100 ppm in experiment [1] (setting [3]), in experiment [1] (setting [4]), in experiment [2] (setting [5]) and in experiment [2] (setting [6]) was 80 to 100% throughout.

For the compound `COc1ccnc(C(=O)N[C@H]2CCC[C@H](Cc3ccccc3)[C@@H](Oc3ccccc3)[C@H](C)OC2=O)c1O` [Compound F20], the pest or weed control at 100 ppm lay in the range of 80 to 100% in experiment [1] (setting [3]), 0 to 80% in experiment [1] (setting [4]), 80 to 100% in experiment [2] (setting [5]) and 80 to 100% in experiment [2] (setting [6]).

`CCCO[C@@H]1[C@@H](Cc2ccccc2)CCC[C@H](NC(=O)c2nccc(OC)c2O)C(=O)O[C@H]1C` [Compound F21]: the pest or weed control at 100 ppm was in the range of 80 to 100% in experiment [1] (setting [3]), 80 to 100% in experiment [1] (setting [4]), 0 to 80% in experiment [2] (setting [5]) and 0 to 80% in experiment [2] (setting [6]).

Regarding `COc1ccnc(C(=O)N[C@H]2CCC[C@H](Cc3ccccc3)[C@@H](OC3CCCC3)[C@H](C)OC2=O)c1O` [Compound F22], the pest or weed control at 100 ppm in experiment [1] (setting [3]), in experiment [1] (setting [4]), in experiment [2] (setting [5]) and in experiment [2] (setting [6]) was 80 to 100% each time.

For the compound `CCO[C@@H]1[C@@H](Cc2ccccc2)CCC[C@H](NC(=O)c2nccc(OC)c2O)C(=O)O[C@H]1C` [Compound F23], the pest or weed control at 100 ppm in experiment [1] (setting [3]), in experiment [1] (setting [4]), in experiment [2] (setting [5]) and in experiment [2] (setting [6]) was 80 to 100% throughout.

For `COCCO[C@@H]1[C@@H](Cc2ccccc2)CCC[C@H](NC(=O)c2nccc(OC)c2O)C(=O)O[C@H]1C` [Compound F24], the pest or weed control at 100 ppm in experiment [1] (setting [3]), in experiment [1] (setting [4]), in experiment [2] (setting [5]) and in experiment [2] (setting [6]) was 80 to 100% throughout.

`COc1ccnc(C(=O)N[C@H]2CCC[C@H](CC3CCCCC3)[C@@H](OCC(C)C)[C@H](C)OC2=O)c1O` [Compound F25]: the pest or weed control at 100 ppm fell in the range of 80 to 100% in experiment [1] (setting [3]), 80 to 100% in experiment [2] (setting [5]) and 0 to 80% in experiment [2] (setting [6]).

As to `COc1ccc(C[C@H]2CCC[C@H](NC(=O)c3nccc(OC)c3O)C(=O)O[C@@H](C)[C@@H]2Oc2ccccc2)cc1` [Compound F26], the pest or weed control at 100 ppm lay in the range of 80 to 100% in experiment [1] (setting [3]), 0 to 80% in experiment [1] (setting [4]), 80 to 100% in experiment [2] (setting [5]) and 80 to 100% in experiment [2] (setting [6]).

For `COc1ccnc(C(=O)N[C@H]2CCC[C@H](CC3CCCC3)[C@@H](Oc3ccccc3)[C@H](C)OC2=O)c1O` [Compound F27], the pest or weed control at 100 ppm in experiment [1] (setting [3]), in experiment [1] (setting [4]), in experiment [2] (setting [5]) and in experiment [2] (setting [6]) was 80 to 100% each time.

`COc1ccc(C[C@H]2CCC[C@H](NC(=O)c3nccc(OC)c3O)C(=O)O[C@@H](C)[C@@H]2OC(=O)C2CCCC2)cc1` [Compound F28]: the pest or weed control at 100 ppm lay in the range of 80 to 100% in experiment [1] (setting [3]), 80 to 100% in experiment [2] (setting [5]) and 0 to 80% in experiment [2] (setting [6]).

With `COc1ccc(C[C@H]2CCC[C@H](NC(=O)c3nccc(OC)c3O)C(=O)O[C@@H](C)[C@@H]2OCC2CC2)cc1` [Compound F30], the pest or weed control at 100 ppm in experiment [1] (setting [3]), in experiment [1] (setting [4]), in experiment [2] (setting [5]) and in experiment [2] (setting [6]) was 80 to 100% throughout.

As to `COc1ccnc(C(=O)N[C@H]2CCC[C@H](CC3CCCC3)[C@@H](OCC3CC3)[C@H](C)OC2=O)c1O` [Compound F31], the pest or weed control at 100 ppm in experiment [1] (setting [3]), in experiment [1] (setting [4]), in experiment [2] (setting [5]) and in experiment [2] (setting [6]) was 80 to 100% each time.

Turning to `COc1ccc(C[C@H]2CCC[C@H](NC(=O)c3nccc(OC)c3O)C(=O)O[C@@H](C)[C@@H]2OCC(C)C)cc1` [Compound F32], the pest or weed control at 100 ppm in experiment [1] (setting [3]) is 80 to 100%; in experiment [1] (setting [4]), 0 to 80%; in experiment [2] (setting [5]) it was 80 to 100%; in experiment [2] (setting [6]), 80 to 100%.

Take `CCCO[C@@H]1[C@@H](Cc2ccc(OC)cc2)CCC[C@H](NC(=O)c2nccc(OC)c2O)C(=O)O[C@H]1C` [Compound F33]: the pest or weed control at 100 ppm in experiment [1] (setting [3]), in experiment [1] (setting [4]), in experiment [2] (setting [5]) and in experiment [2] (setting [6]) was 80 to 100% in each case.

On to `COc1ccnc(C(=O)N[C@H]2CCC[C@H](Cc3ccco3)[C@@H](OCC(C)C)[C@H](C)OC2=O)c1O` [Compound F34], for which the pest or weed control at 100 ppm in experiment [1] (setting [3]), in experiment [1] (setting [4]), in experiment [2] (setting [5]) and in experiment [2] (setting [6]) was 80 to 100% each time.

Consider `COc1ccnc(C(=O)N[C@H]2CCC[C@H](CC3CCCC3)[C@@H](OC(=O)C(C)C)[C@H](C)OC2=O)c1O` [Compound F35], for which the values for the pest or weed control at 100 ppm in experiment [1] (setting [3]) and in experiment [2] (setting [5]) were 0 to 80% and 80 to 100%, respectively.

Take `CCCO[C@@H]1[C@@H](CC2CCCC2)CCC[C@H](NC(=O)c2nccc(OC)c2O)C(=O)O[C@H]1C` [Compound F36]: the pest or weed control at 100 ppm in experiment [1] (setting [3]) and in experiment [2] (setting [5]) was 80 to 100% throughout.

`COc1ccnc(C(=O)N[C@H]2CCC[C@H](CC3CCCC3)[C@@H](OCC(C)C)[C@H](C)OC2=O)c1O` [Compound F37]: the pest or weed control at 100 ppm fell in the range of 0 to 80% in experiment [1] (setting [3]), 0 to 80% in experiment [1] (setting [4]) and 80 to 100% in experiment [2] (setting [5]).

With `COc1ccnc(C(=O)N[C@H]2CCC[C@H](C)[C@@H](Oc3ccccc3)[C@H](C)OC2=O)c1O` [Compound F38], the pest or weed control at 100 ppm in experiment [1] (setting [3]), in experiment [1] (setting [4]) and in experiment [2] (setting [5]) was 80 to 100% in each case.

For the compound `COc1ccnc(C(=O)N[C@H]2CCC[C@H](C)[C@@H](OCc3ccccc3)[C@H](C)OC2=O)c1O` [Compound F39], the pest or weed control at 100 ppm in experiment [1] (setting [3]) lay within 80 to 100%; in experiment [1] (setting [4]), 80 to 100%; in experiment [2] (setting [5]) it was 80 to 100%; in experiment [2] (setting [6]), 0 to 80%.

For the compound `COc1ccnc(C(=O)N[C@H]2CCC[C@H](Cc3ccccc3)[C@@H](O)[C@H](C)OC2=O)c1O` [Compound F40], the pest or weed control at 100 ppm in experiment [1] (setting [3]) lay in the range of 80 to 100%; in experiment [1] (setting [4]) it was 0 to 80%; in experiment [2] (setting [5]) it was 0 to 80%; in experiment [2] (setting [6]), 0 to 80%.

For the compound `COc1ccnc(C(=O)N[C@H]2CCC[C@H](Cc3ccc(C)cc3)[C@@H](OCC3CC3)[C@H](C)OC2=O)c1O` [Compound F42], the pest or weed control at 100 ppm in experiment [1] (setting [3]), in experiment [1] (setting [4]), in experiment [2] (setting [5]) and in experiment [2] (setting [6]) was 80 to 100% each time.

Turning to `COc1ccnc(C(=O)N[C@H]2CCC[C@H](CCF)[C@@H](OCC(C)C)[C@H](C)OC2=O)c1O` [Compound F43], the pest or weed control at 100 ppm in experiment [1] (setting [3]), in experiment [1] (setting [4]), in experiment [2] (setting [5]) and in experiment [2] (setting [6]) was 80 to 100% throughout.
